One series has as its target PKM2 (Homo sapiens (Human), UniProt P14618). As to the kind of experiment: Recombinant PKM2 enzyme activity in the presence of FBP (LDH-coupled NADH consumption). In kind it is biochemical. Particulars: for IC50: recombinant pyruvate kinase, enzyme activity at various concentrations of inhibitor, read-out: IC50 in vitro (PKM2); for PKM2 inhibition of enzyme activity relative to the absence of compound: screening concentration estimated at 50 μM. The method, then: (§1) Recombinant PKM1 and PKM2 were expressed in E. coli and purified using an Ni-NTA column according to standard protocols. PKM2 ([…]) was mixed with the following components: 0.6 mM ADP, 0.5 mM phosphoenolpyruvate, 200 μM NADH, 1-4 units of lactate dehydrogenase, 50 μM FBP, 1 mM DTT, 0.02% Brij 35, 5% glycerol, and the test molecule with a final DMSO concentration of 5%. A control reaction lacked the test molecule. The test molecules used in this example were selected from a library containing over 100,000 compounds.
Primary screening was performed using PKM2 in the presence of FBP. […] Activity was measured by monitoring the concentration of NADH. Pyruvate, produced by the enzymatic activity of pyruvate kinase, is converted into lactate by lactate dehydrogenase, which requires the consumption of NADH (NADH→NAD^+). Thus, the activity of PKM2 was indirectly measured by monitoring the consumption of NADH through fluorescence assays. Additionally, the activity of the PKM2 enzyme was directly monitored by measuring the production of ATP, as ATP is produced when phosphoenolpyruvate is converted to pyruvate by PKM2.
(§2) For in vitro studies, recombinant pyruvate kinase was incubated with the compound indicated (Table 2) and the activity of the enzyme assessed, as described in Example 4. To determine the IC50, enzyme activity was determined at various concentrations of inhibitor. The percentages shown in Table 2 reflect the inhibition of enzyme activity relative to the absence of compound when the enzyme is incubated with 50 μM of the compound indicated. For in vivo studies, human lung cancer cell lines were incubated with increasing concentrations of the compound indicated and the concentration required to kill >90% of the cells is reported.

The target in the next series is PKM1 (Homo sapiens (Human), UniProt P14618). As to the kind of experiment: Recombinant PKM1 enzyme activity (same screening method). Format: biochemical. Particulars: screening concentration estimated at 50 μM. The method, then: as §1
PKM1, sequence (P14618 other isoform, or with tags, fused parts or gaps, species assumed): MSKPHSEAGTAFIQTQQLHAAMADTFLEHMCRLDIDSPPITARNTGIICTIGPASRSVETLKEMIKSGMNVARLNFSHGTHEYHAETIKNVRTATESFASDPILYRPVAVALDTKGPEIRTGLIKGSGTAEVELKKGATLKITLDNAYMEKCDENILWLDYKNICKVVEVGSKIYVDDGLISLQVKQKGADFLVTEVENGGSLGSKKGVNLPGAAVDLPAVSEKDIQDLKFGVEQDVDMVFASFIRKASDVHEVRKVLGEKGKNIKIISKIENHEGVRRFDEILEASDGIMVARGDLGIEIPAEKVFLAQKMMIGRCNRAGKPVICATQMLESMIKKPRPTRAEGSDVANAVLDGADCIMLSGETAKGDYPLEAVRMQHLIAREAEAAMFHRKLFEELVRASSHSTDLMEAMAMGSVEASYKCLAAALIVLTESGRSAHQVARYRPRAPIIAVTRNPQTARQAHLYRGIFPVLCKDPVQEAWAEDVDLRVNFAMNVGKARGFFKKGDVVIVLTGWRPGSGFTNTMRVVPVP
This same screening method was then used to retest candidate molecules for the inhibition of PKM1 to determine which candidate compounds are active against PKM2, but not PKM1.
as §2

Series [1] has as its system H1299 and A549 human lung cancer cells. As to the kind of experiment: Killing of human lung cancer cell lines by increasing concentrations of compound. Format: cell-based. Conditions: concentration required to kill >90% of the cells, read-out: IC50 in vivo. On the procedure:
as §2
Human lung cancer cells were exposed to increasing concentrations of candidate compounds A2 and D1. The toxicity of the compounds was measured by determining the percentage of surviving cells. Cells were mock-treated with DMSO as a control. […] depicts the toxicity of compounds A2 (FIG. 8a) and D1 (FIG. 8b) in H1299 cells compared to mock treatment with DMSO.

In the next series the test system is FL5.12 cells. As to the kind of experiment: Toxicity in FL5.12 cells with and without growth factor (IL-3). Format: cell-based, mouse. Particulars: twenty hours of treatment, presence and absence of IL-3. The method, then:
Mouse pre-lymphocyte cells (FL5.12 cells) were treated with candidate compounds A2 (FIG. 9a) and D1 (FIG. 9b) for twenty hours in the presence and absence of growth factor (IL-3).

PKM2, sequence (P14618 whole entry, species assumed): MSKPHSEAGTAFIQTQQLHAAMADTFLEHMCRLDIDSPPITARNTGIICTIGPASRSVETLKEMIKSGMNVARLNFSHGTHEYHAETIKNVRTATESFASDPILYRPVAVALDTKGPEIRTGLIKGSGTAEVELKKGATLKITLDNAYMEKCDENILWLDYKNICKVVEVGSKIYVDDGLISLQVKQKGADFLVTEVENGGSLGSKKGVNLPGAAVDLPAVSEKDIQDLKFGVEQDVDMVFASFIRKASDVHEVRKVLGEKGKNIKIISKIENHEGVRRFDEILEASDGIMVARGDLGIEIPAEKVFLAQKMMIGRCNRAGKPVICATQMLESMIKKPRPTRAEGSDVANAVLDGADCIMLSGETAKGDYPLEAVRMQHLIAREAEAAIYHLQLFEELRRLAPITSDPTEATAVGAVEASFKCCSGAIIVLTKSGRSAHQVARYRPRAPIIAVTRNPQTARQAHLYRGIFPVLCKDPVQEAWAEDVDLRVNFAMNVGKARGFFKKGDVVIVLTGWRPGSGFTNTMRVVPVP

As for `CC(=O)CSc1ccc(-n2c(C)ccc2C)cc1` [Compound A1], at PKM2, the half-inhibitory concentration (IC50) is ~90 µM and the “PKM2 inhibition of enzyme activity relative to the absence of compound” value is listed as 50%. Also, the “PKM1 inhibition of enzyme activity relative to the absence of compound” value at PKM1 was 15%. Further, the Concentration killing >90% of cells in series [1] was > 100 µM.

Consider `CCCCCN1/C(=C/C=C/c2n(CCCCC)c3cc(Cl)c(Cl)cc3[n+]2CCCC)N(CCCC)c2cc(Cl)c(Cl)cc21` [Compound B1], for which, at PKM2, the IC50 is ~10 µM and the “PKM2 inhibition of enzyme activity relative to the absence of compound” value is 85%. Further, the “PKM1 inhibition of enzyme activity relative to the absence of compound” value on PKM1 was 0%.

Take `O=C(O)CN1C(=O)/C(=C/c2ccc(OC(=O)c3ccccc3I)cc2)SC1=S` [Compound D1]: at PKM2, the IC50 turned out to be 20 µM and the “PKM2 inhibition of enzyme activity relative to the absence of compound” value is reported as 70%. Besides, the “PKM1 inhibition of enzyme activity relative to the absence of compound” value on PKM1 is 15%. For the same compound, the Concentration killing >90% of cells in series [1] is ~250 µM. In addition, in the series on FL5.12 cells, the “Toxicity in FL5.12 cells, effect of growth factor withdrawal” value was “Growth factor withdrawal increases the toxicity”.

As to `C=C(NC(C)C)c1cc2c(=O)oc3ccc(C)cc3c2s1` [Compound G1], on PKM2, the IC50 was ~70 µM. Also, the Concentration killing >90% of cells in series [1] is > 500 µM.

As to `O=C1C2C3C=CC(C3)C2C(=O)N1c1nc[nH]n1` (stereo not shown) [Compound H1], the IC50 at PKM2 is 90 µM. Also, in series [1], the Concentration killing >90% of cells is > 500 µM.

The values are drawn from patent US8877791B2, “Inhibitors of pyruvate kinase and methods of treating disease” (Beth Israel Deaconess Medical Center, Inc., priority 2006, dated 2014).
